Holding throughout (assay type): in vivo
In assay [1] the test system is Psylla piri. Put plainly: Example 6: pear trees treated against Psylla piri. As to conditions: larvae on shoots, % a.i.: amitraz 0.05, I-9, I-2, I-1 0.096. Here is the method: In three replications, in each case 4 about 4-year-old pear trees of the cultivar “Williams Christ” are treated against Psylla piri. Two applications are carried out at an interval of 11 days using a motor-operated barrow-mounted sprayer. Here, the active compounds Example (I-9) (240 SC), Example (I-2) (240 SC) and Example (I-1) (240 SC) are tested against the commercial standard Amitraz (200 EC) at the stated amounts. The application rate is 2000 l of water/ha.
Evaluation is carried out 3, 10 and 20 days after the last treatment by rating the kill of the larvae in percent on the shoots.

For assay [2], the system named is Pemphigus bursarius. Briefly: Example 3: chrysanthemums, lettuce root aphid. Conditions: on roots, spray on above-ground parts 96 g of a.i./ha. Here is the method:
In three replications, in each case 10 about 5-month-old chrysanthemums (Camilla) in 2 l-vessels are treated against the lettuce root aphid Pemphigus bursarius. Here, the active compound Example (I-4) (240 SC) is applied with a knapsack sprayer operated by pressurized air at the beginning of the infestation at the stated application rates to the above-ground parts of the plants. The soil is covered with a film. The application rate is 600 l of water/ha. 0.1% a.i. of rapeseed oil methyl ester (500 EW) is added to the spray liquor. Omethoate as drip irrigation in a concentration of 0.1% is used for comparison. The application is carried out two days later.
The kill in percent is determined on the roots. […]

The test system of assay [3] is Pulvinaria aurantii. Put plainly: Example 11: satsuma trees treated against Pulvinaria aurantii. Conditions: 41 days after treatment; live animals counted, Henderson and Tilton; satsuma tree; % a.i.: buprofezin 0.025, I-4 0.0144. Here is the method: In three replications, in each case one about 4-year-old satsuma tree of the cultivar “Nankan 20” is treated against Pulvinaria aurantii. Here, the active compound Example (I-4) (240 SC) in a tank mix with 0.2% of rapeseed oil methyl ester (500 EW) at the stated application rate is tested against the commercial standard buprofezin at the stated application rate. The application is carried out using a motor-operated knapsack sprayer. Here, each plant is treated with 400 ml of spray liquor.
Evaluation is carried out before and 41 days after the treatment by counting the live animals. The efficacy in percent is then calculated according to Henderson and Tilton.

The subject of assay [4] is Lepidosaphes beckii. Put plainly: Example 18: citrus trees treated against Lepidosaphes beckii. As to conditions: 140 days after treatment, larvae on fruits, g a.i./ha/m crown height: pyriproxyfen 50, I-4 48. Here is the method:
In three replications, in plots of a size of about 20 m^2, citrus trees of the cultivar “Oro Nules” are treated against Lepidosaphes beckii. The application is carried out using a high-pressure sprayer. Here, the active compound Example (I-4) (240 SC) in a tank mix with 0.1% a.i. of rapeseed oil methyl ester (500 EW) is tested against the commercial standard pyriproxyfen (100 EC), at the stated application rates. The application rate is 2500 l of water/ha.
Evaluation is carried out 140 days after the treatment by rating the kill of the larvae on the fruits.

The subject of assay [5] is Pseudaulacaspis pentagona. Briefly: Example 24: tea plants treated against Pseudaulacaspis pentagona. As to conditions: crawlers on tea plants, % a.i.: Supracide EC 0.04, I-4 0.01. As for the experimental part: In nine replications, about 7-week-old tea plants of the cultivar “Yakubita” are treated against Pseudaulacaspis pentagona. Here, the active compound Example (I-4) (200 SC) is tested against the commercial standard Supracide EC (400 EC) at the stated application rates. The application is carried out using a sprayer operated with pressurized air. Evaluation is carried out 16 and 35 days after the treatment by rating the kill of the crawlers on the plants.

Assay [6] concerns Dysaphis plantaginea. Put plainly: Example 40: apple trees treated against Dysaphis plantaginea. As to conditions: population on shoots, % a.i.: imidacloprid 0.007, I-9 0.0144, I-4 0.0144; for Kill (%) 14 d: 14 d after treatment; for Kill (%) 21 d: 21 d after treatment. As for the experimental part:
In three replications, three about 22-year-old apple trees of the cultivar “Golden Delicious” are treated eradicatively against Dysaphis plantaginea and Aphis pomi. The application is carried out using a motor-operated barrow-mounted sprayer. Here, the active compounds Example (I-9) (240 SC) and Example (I-4) (240 SC) in the stated amount are tested against the commercial standard imidacloprid (200 SL), at the stated application rate. The application rate is 1200 l of water/ha.
Evaluation is carried out 14 d and 21 d after the treatment by rating the kill of the population on the shoots.

Assay [7] relates to Macrosiphum euphorbiae. Briefly: Example 46: head lettuce treated against Macrosiphum euphorbiae. As to conditions: nymphs on plants, g a.i./ha: endosulfan 1120, I-4 48. As for the experimental part: (§1) In four replications, plots of a size of about 33 m^2 with head lettuce of the cultivar “PIC 714” are treated against Aulacorthum solani, Macrosiphum euphorbiae and Myzus persicae. The application is carried out using a tractor sprayer. Here, the active compound Example (I-4) (240 SC), in a tank mix with 0.2% a.i. of rapeseed oil methyl ester (500 EW), is tested against the commercial standard endosulfan (360 EC), at the stated application rates. The application rate is 187 l of water/ha. Two treatments are carried out, at an interval of 22 days.
(§2) Evaluation is carried out 8, 22, 30 and 40 days after the first treatment by rating the kill of the nymphs on the plants.

Assay [8] deals with Myzus persicae. Put plainly: Example 46: head lettuce treated against Myzus persicae. Conditions: nymphs on plants, g a.i./ha: endosulfan 1120, I-4 48. Here is the method:
as §1, §2

Assay [9] has as its system Myzus persicae. Briefly: Example 47: peach trees infested with Myzus persicae. As to conditions: live animals on shoots, Henderson and Tilten, g a.i./ha/m crown height: imidacloprid 25, I-4 24; for Effect (%) 7 d: 7 d after application; for Effect (%) 14 d: 14 d after application; for Effect (%) 21 d: 21 d after application. Here is the method: In three replications, under practical conditions, about 18-year-old peach trees of the cultivar “Vivian” infested with Myzus persicae are treated with Example (I-4) (240 SC) in a tank mix with 0.2% a.i. of rapeseed oil methyl ester (500 EW) in comparison to the commercial standard imidacloprid 200 SL, at the stated application rates. The application is carried out using a motor-operated knapsack sprayer. The application rate is 1000 l of water/ha.
Evaluation is carried out 7, 14 and 21 days after the application by counting the live animals on the shoots. The efficacy is then calculated by calculating the effect on the population in percent according to Henderson and Tilten.

[10] abbreviates: 8 d after first of two treatments.
The mark [11] stands for this setting: 22 d after first of two treatments.
Where [12] appears, read: 30 d after first of two treatments.

For `CCOC(=O)OC1=C(c2cc(C)ccc2Br)C(=O)NC12CCC(OC)CC2` (centres unmarked) [Example (I-2)], the “Kill (%) 3 d” value in assay [1] (3 d after last of two treatments) is reported as 96.7%. Also, the “Kill (%) 10 d” value in assay [1] (10 d after last of two treatments) stood at 99%. The “Kill (%) 20 d” value in [1] (20 d after last of two treatments) is 97.9%.
As to `CCOC(=O)OC1=C(c2cc(C)ccc2C)C(=O)NC12CCC(OC)CC2` (centres unmarked) [Example (I-4)], in assay [2] (9 d), the “Kill (%) 9 d” value is on record as 46.9 (9 d) %. Moreover, the “Kill (%) (17 d)” value in assay [2] (17 d) is given as 80.4 (17 d) %. Moreover, the “Effect (%)” value in assay [3] is 100%. The “Kill (%) 140 days” value in assay [4] turned out to be 100%. The “Kill (%) 16 d” value in assay [5] (16 d after treatment) was 81.8%. Further, in assay [5] (35 d after treatment), the “Kill (%) 35 d” value amounted to 75%. Further, in assay [6], the “Kill (%) 14 d” value worked out at 99.3% and the “Kill (%) 21 d” value is recorded as 100%. In assay [7] (setting [10]), the “Kill (%) 8 d” value came out at 95%. In assay [7] (setting [11]), the “Kill (%) 22 d” value is 100%. The “Kill (%) 30 d” value in assay [7] (setting [12]) was 100%. The “Kill (%) 40 d” value in [7] (40 d after first of two treatments) stood at 96%. The “Kill (%) 8 d” value in [8] (setting [10]) came to 95%. Besides, the “Kill (%) 22 d” value in assay [8] (setting [11]) turned out to be 100%. Further, the “Kill (%) 30 d” value in [8] (setting [12]) is 88%. In assay [9], the “Effect (%) 7 d” value amounted to 94.0%, the “Effect (%) 14 d” value is listed as 98.9% and the “Effect (%) 21 d” value amounted to 93.3%.
For the compound `O=[N+]([O-])NC1=NCCN1Cc1ccc(Cl)nc1` [imidacloprid, reference compound], in [6], the “Kill (%) 14 d” value was 97.6% and the “Kill (%) 21 d” value turned out to be 99.8%. For the same compound, in assay [9], the “Effect (%) 7 d” value worked out at 97.6%, the “Effect (%) 14 d” value is 95.8% and the “Effect (%) 21 d” value is 78.1%.

Values taken from US20090012152A1, “Use of Tetramic Acid Derivatives for Controlling Insects from the Genus of the Plane Lice (Sternorrhyncha)” (Bayer CropScience Aktiengesellschaft, priority 2005, published 2009).
